Test results published in patent US12410152B2, “Oxazole and thioazole-type cullin ring ubiquitin ligase compounds and uses thereof” (Proxygen GmbH, priority 2019, dated 2025).

Target: T1, CRL4B complex (CUL4B, DDB1) (Homo sapiens, UniProt Q13620+Q16531)
T1 construct: endogenous in cells; host or cells: KBM7 WT cells
Test: Chemoproteomics with IC021313.2 photoaffinity probe, competitive setup
Assay type: binding
Conditions: KBM7 WT; 100 μM competitor, 10 μM photoprobe
Source text: Another explanation would be (2) functional redundancy, where our identified small-molecules modulate more than one SR in an interchangeable manner (either directly or indirectly). Lastly (3), it could be that the tested molecules endow a neomorphic function of the CRL4B complex by binding to a non-SR component. In order to disentangle these hypotheses, and to test if the assayed molecules would directly bind to/physically engage the CRL4B complex, IC021313.2 was derivatized with a moiety consisting of a photoactive diazirine group and an alkyl handle (FIG. 7). The ensuing functionalized molecule was used to purify proteins physically binding to the compound (“interactors”). In order to gain increased confidence, a competitive setup was chosen where cells were initially treated with the parental, non-modified compound or vehicle control. Compound treatment (1h) at excess concentrations of 100 μM was expected to saturate binding sites. Subsequently, cells (both vehicle- and compound-treated) were treated with the functionalized probe for 1 h at 10 μM, followed by UV-crosslinking. Next, cells were lysed and a biotin-azide linker was attached via click chemistry, and interacting proteins (“interactors”) were purified via biotin enrichment over a Streptavidin column and subjected to unbiased detection via label-free proteomics analysis. […]

T1 sequence (Q13620 whole entry): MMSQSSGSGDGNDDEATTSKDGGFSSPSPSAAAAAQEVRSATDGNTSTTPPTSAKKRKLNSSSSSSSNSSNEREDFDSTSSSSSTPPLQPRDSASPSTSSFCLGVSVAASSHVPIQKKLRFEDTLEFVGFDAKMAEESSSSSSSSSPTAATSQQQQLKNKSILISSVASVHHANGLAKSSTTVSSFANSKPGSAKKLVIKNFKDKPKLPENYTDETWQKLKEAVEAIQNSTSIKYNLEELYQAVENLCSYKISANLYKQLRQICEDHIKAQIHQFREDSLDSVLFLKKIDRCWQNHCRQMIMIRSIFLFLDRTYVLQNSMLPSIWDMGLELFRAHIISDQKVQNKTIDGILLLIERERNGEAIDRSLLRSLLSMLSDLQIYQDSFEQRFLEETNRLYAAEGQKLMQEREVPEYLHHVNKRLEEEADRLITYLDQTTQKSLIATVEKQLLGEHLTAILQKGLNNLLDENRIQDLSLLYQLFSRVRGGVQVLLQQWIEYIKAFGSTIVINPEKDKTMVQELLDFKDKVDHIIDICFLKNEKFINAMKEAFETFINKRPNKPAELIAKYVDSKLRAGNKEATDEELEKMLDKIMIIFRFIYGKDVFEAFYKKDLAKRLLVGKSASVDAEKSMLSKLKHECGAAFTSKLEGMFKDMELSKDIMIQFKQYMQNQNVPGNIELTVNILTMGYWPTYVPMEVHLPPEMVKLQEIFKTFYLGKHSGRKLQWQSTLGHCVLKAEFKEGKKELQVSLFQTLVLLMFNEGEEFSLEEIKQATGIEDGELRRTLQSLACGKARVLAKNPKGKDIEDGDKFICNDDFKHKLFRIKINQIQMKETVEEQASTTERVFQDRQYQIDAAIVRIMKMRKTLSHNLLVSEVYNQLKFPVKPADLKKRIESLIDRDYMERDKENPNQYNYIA
T1 sequence (Q16531 2-1140 limits assumed): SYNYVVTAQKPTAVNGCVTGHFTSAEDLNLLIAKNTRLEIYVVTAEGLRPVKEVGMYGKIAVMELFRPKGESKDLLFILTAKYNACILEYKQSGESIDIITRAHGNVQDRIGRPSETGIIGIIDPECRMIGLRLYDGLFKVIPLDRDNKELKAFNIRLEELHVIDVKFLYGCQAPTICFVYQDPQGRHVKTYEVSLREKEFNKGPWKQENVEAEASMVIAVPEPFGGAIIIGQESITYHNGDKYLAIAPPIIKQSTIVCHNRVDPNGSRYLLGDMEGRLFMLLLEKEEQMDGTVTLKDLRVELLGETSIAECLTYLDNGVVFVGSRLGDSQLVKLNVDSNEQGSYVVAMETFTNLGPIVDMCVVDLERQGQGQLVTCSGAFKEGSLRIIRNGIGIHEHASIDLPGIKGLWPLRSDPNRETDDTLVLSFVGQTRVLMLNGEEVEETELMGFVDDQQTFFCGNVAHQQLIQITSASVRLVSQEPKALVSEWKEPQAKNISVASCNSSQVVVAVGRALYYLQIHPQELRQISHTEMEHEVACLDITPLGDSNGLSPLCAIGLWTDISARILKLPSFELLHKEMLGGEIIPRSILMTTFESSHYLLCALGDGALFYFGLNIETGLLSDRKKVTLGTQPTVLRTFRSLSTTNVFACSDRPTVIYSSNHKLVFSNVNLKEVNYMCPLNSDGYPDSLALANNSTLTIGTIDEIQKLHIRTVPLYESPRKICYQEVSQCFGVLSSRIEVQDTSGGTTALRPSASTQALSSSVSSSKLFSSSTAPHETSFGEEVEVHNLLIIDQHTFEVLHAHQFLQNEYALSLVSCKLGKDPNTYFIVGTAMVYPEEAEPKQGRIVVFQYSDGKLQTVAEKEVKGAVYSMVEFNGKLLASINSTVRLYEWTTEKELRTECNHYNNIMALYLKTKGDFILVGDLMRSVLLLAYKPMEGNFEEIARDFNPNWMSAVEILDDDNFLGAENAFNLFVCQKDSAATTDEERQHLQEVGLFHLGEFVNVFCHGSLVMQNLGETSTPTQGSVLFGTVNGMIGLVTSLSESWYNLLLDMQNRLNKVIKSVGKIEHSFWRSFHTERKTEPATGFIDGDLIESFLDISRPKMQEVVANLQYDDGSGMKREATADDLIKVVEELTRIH
T1 sequence (Q9NYV4 whole entry partner): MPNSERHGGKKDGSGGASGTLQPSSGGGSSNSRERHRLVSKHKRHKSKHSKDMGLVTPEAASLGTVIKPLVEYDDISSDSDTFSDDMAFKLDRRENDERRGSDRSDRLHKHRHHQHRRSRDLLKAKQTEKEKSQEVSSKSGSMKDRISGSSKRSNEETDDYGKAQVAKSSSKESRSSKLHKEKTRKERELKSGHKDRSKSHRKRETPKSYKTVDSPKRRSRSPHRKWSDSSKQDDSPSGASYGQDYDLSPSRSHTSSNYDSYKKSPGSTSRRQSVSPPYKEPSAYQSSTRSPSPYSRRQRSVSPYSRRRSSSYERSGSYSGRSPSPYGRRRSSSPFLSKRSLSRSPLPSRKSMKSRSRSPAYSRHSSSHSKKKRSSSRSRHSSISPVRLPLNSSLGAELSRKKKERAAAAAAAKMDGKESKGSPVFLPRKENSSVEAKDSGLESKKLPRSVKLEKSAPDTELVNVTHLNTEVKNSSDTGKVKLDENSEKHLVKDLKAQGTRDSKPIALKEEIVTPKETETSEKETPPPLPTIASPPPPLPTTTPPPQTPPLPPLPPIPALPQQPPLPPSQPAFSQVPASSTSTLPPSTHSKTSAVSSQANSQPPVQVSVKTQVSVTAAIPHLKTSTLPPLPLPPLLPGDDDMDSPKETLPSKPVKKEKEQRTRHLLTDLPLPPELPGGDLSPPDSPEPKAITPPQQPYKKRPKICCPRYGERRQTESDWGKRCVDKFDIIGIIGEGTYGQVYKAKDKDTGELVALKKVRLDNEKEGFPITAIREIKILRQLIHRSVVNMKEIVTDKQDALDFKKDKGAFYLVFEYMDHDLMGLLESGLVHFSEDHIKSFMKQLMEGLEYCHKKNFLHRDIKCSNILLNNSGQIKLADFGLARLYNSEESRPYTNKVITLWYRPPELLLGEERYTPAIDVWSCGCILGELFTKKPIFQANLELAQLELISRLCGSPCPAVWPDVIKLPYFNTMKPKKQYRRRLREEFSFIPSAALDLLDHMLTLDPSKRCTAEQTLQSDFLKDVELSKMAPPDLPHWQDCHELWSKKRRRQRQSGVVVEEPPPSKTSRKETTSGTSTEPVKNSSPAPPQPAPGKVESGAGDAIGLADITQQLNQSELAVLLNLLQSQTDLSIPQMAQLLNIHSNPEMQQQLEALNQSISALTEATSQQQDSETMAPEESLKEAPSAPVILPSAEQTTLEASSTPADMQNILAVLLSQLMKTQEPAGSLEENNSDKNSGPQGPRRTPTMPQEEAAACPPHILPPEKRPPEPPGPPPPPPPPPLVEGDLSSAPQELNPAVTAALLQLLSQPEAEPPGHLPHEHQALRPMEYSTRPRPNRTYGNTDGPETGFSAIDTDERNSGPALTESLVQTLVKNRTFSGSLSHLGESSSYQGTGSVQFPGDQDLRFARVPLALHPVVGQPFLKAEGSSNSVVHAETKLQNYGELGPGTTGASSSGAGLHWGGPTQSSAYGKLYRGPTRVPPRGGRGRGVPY
T1 sequence (O75909 whole entry partner): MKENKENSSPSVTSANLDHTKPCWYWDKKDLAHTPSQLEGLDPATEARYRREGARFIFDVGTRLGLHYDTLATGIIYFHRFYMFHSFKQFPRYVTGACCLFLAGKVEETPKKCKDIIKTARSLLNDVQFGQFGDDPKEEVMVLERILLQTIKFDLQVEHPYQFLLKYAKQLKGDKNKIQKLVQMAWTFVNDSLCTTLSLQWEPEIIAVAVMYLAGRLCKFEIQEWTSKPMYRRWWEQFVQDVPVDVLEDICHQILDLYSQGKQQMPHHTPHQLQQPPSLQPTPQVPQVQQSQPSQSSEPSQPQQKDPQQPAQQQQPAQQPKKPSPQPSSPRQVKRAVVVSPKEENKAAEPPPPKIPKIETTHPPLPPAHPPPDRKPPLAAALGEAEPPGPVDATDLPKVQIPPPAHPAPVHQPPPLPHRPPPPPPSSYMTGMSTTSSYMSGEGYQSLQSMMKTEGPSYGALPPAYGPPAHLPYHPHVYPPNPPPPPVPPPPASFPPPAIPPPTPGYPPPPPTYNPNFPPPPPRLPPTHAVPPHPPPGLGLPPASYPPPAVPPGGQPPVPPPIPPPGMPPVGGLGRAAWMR

SMILES: O=C(CSc1nc2ccccc2[nH]1)Nc1ccc(Cl)cn1 [IC021313.2]
- physical engagement of CRL4B complex (competitive photoprobe pulldown, MS): physically engages with a CRL4B complex
